Assay results as given in paper PMC7339578, “Multiple circulating alkaloids and saponins from intravenous Kang-Ai injection inhibit human cytochrome P450 and UDP-glucuronosyltransferase isozymes: potential drug–drug interactions” (Chinese Medicine, 2020).
Values joined by “and” are separate entries in the source; they are usually repeats but may differ in a detail not shown here. Equal values may be shown once.

Experiments:
[1] = Urinary (renal) excretion in rats after a 30-min infusion of Kang-Ai injection; format: in vivo, Sprague–Dawley rats; conditions: male, Sprague-Dawley, rat, in vivo, iv
Method in brief: (§1)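 Urine collected in metabolic cages at 0–4, 4–8, 8–12 h and bile at 0–3, 3–6, 6–9, 9–12 h after infusion start, weighed and frozen at −80 °C. Non-compartmental analysis; CLR and CLB as cumulative urinary or biliary amount divided by plasma AUC0-∞, fe-U and fe-B as cumulative amount/dose; mean ± SD (n = 3).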

CYP2C8 = biological target: T1, CYP2C8 (Homo sapiens, UniProt P10632); experiment: Inhibition of recombinant CYP2C8 (probe paclitaxel); format: in vitro ADME; conditions: IC50 towards CYP2C8, recombinant isozyme; mean ± SD of triplicate; unit not given (IC50 classes in μM)
T1 sequence (P10632 1-490): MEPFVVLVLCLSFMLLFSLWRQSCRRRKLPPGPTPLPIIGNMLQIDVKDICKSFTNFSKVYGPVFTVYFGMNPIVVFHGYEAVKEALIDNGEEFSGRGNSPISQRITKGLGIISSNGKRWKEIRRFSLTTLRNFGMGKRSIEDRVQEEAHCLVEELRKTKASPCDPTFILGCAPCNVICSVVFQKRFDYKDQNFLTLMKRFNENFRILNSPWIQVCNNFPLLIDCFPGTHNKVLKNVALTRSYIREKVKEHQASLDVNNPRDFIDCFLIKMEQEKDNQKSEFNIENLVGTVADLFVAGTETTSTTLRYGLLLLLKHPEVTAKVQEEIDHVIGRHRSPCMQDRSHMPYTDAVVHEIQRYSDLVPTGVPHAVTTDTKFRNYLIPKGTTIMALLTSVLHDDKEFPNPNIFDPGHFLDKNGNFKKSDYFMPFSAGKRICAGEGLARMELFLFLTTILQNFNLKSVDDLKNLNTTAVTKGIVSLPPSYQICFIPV
Method: (§2) In this study, phenacetin (100 μM), coumarin (100 μM), bupropion (100 μM), paclitaxel (60 μM), tolbutamide (200 μM), mephenytoin (100 μM), chlorzoxazone (200 μM) and nifedipine (40 μM) have been used as the probe substrates for CYP1A2, 2A6, 2B6, 2C8, 2C9, 2C19, 2E1 and 3A4, respectively.

[2] = Stability tests of analytes in rat plasma QC samples; format: in vitro ADME; conditions: rat
Method: […] The dilution integrity was investigated by analyzing six replicate samples with each analyte, and each analyte were diluted 10-fold with blank rat matrix. Furthermore, the diluted samples were analyzed using freshly prepared calibration curve to calculate RE and RSD, which should be no more than ± 15% as criterion.

CYP2C9 = CYP2C9 (Homo sapiens, UniProt P11712); experiment: Inhibition of recombinant CYP2C9 (probe tolbutamide); format: in vitro ADME; conditions: IC50 towards CYP2C9, recombinant isozyme; mean ± SD of triplicate; unit not given (IC50 classes in μM)
Method: as §2

[3] = Plasma pharmacokinetics in rats after a 30-min intravenous infusion of Kang-Ai injection; format: in vivo, Sprague–Dawley rats; conditions: male, Sprague-Dawley, rat, in vivo, iv
Method in brief: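 Fasted male Sprague–Dawley rats (250 ± 20 g) got a single 30-min tail-vein infusion of Kang-Ai injection at 6 mL/kg. Jugular blood was sampled from 5 min to 12 h for plasma. Parameters came from non-compartmental analysis (trapezoidal AUC), n = 3.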

[4] = Biliary (hepatobiliary) excretion in rats after a 30-min infusion of Kang-Ai injection; format: in vivo, Sprague–Dawley rats; conditions: male, Sprague-Dawley, rat, in vivo, iv
Method in brief: as §1

Sequence of CYP2C9 (P11712 whole entry): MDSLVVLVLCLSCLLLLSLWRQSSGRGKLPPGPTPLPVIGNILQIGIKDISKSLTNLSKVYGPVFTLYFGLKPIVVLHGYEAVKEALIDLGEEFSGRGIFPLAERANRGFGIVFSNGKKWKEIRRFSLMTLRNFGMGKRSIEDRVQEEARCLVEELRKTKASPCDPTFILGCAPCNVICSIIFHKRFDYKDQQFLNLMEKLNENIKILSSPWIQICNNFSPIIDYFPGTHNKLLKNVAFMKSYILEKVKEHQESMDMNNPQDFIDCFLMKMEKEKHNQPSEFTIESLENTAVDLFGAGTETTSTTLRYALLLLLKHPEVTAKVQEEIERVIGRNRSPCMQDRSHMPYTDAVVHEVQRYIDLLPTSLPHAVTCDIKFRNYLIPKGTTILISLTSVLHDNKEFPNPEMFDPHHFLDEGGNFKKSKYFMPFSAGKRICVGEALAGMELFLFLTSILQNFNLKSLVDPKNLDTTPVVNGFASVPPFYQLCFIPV

O=C1CCC[C@@H]2[C@H]3CCC[N+]4([O-])CCC[C@@H](CN12)[C@@H]34 (some centres unmarked) [Compound A3, Oxymatrine]
CL renal [1]: 1.18 mL/min | IC50 (CYP2C8): > 100 µM | Three freeze-thaw cycles (-80 °C ↔ 23 °C), Mean±SD ([2]; 80 nM): 82.92 ± 3.13 nM | Three freeze-thaw cycles (-80 °C ↔ 23 °C), Mean±SD ([2]; 400 nM): 406.54 ± 20.44 nM | Three freeze-thaw cycles (-80 °C ↔ 23 °C), Mean±SD ([2]; 1600 nM): 1588.35 ± 117.83 nM | Short-term stability at room temperature for 6 h, Mean±SD ([2]; 80 nM): 81.69 ± 3.23 nM | Short-term stability at room temperature for 6 h, Mean±SD ([2]; 400 nM): 391.75 ± 44.05 nM | Short-term stability at room temperature for 6 h, Mean±SD ([2]; 1600 nM): 1629.42 ± 112.91 nM | Extracted samples at 8 °C for 18 h, Mean±SD ([2]; 80 nM): 76.52 ± 2.34 nM | Extracted samples at 8 °C for 18 h, Mean±SD ([2]; 400 nM): 410.83 ± 21.99 nM | Extracted samples at 8 °C for 18 h, Mean±SD ([2]; 1600 nM): 1553.29 ± 127.31 nM | At -80 °C for 48 h, Mean±SD ([2]; 80 nM): 83.89 ± 6.74 nM | At -80 °C for 48 h, Mean±SD ([2]; 400 nM): 422.79 ± 10.74 nM | At -80 °C for 48 h, Mean±SD ([2]; 1600 nM): 1578.58 ± 168.35 nM | IC50 (CYP2C9): > 100 µM | Cmax [3]: 423 ± 55.5 µM | Vd [3]: 0.22 L/kg | clearance [3]: 1.86 mL/min/kg and 1.86 mL/min | half-life [3]: 2.73 ± 1.16 h | CLB (hepatobiliary clearance) [4]: 31.95 ± 4.76 mL/h
